In ChEMBL document CHEMBL1201862, “PubChem BioAssay data set” (2004):
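Interpolation was linear, between the two tested concentrations surrounding the appropriate level; five concentrations were tested over 48 hours in 96-well plates. GI50 marks 50% less growth.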 Calls of active or inactive are those of the source. No stated cut-off is given here; in the data, active = GI50 up to about 1.1 µM and inactive = higher.

Columns and labels:
Assay in all cases: DTP human tumour cell line panel, 48 h
CAKI-1 = test system: CAKI-1
OVCAR-4 = test system: OVCAR-4
MOLT-4 = test system: MOLT-4
SF-295 = test system: SF-295
SW-620 = test system: SW-620
BT-549 = test system: BT-549
A549 = test system: A549
A498 = test system: A498
COLO 205 = test system: COLO 205
CCRF-CEM = test system: CCRF-CEM
HT-29 = test system: HT-29
SF-539 = test system: SF-539
SNB-19 = test system: SNB-19
UACC-62 = test system: UACC-62
MCF7 = test system: MCF7
LOX IMVI = test system: LOX IMVI
HOP-92 = test system: HOP-92
EKVX = test system: EKVX
SNB-75 = test system: SNB-75
MDA-MB-231 = test system: MDA-MB-231

Row | Compound | GI50 (CAKI-1) | GI50 (OVCAR-4) | GI50 (MOLT-4) | GI50 (SF-295) | GI50 (SW-620) | GI50 (BT-549) | GI50 (A549) | GI50 (A498) | GI50 (COLO 205) | GI50 (CCRF-CEM) | GI50 (HT-29) | GI50 (SF-539) | GI50 (SNB-19) | GI50 (UACC-62) | GI50 (MCF7) | GI50 (LOX IMVI) | GI50 (HOP-92) | GI50 (EKVX) | GI50 (SNB-75) | GI50 (MDA-MB-231)
1 | COc1c(OC)c(OC)c2c(=O)cc(-c3ccc(OC(C)C)cc3)oc2c1OC | 20.5 µM (inactive) | 16.5 µM (inactive) | 3.87 µM (inactive) | 29.4 µM (inactive) | > 44 µM (inactive) | 16.7 µM (inactive) | 24.2 µM (inactive) | 8.3 µM (inactive) | 21.4 µM (inactive) | 6.37 µM (inactive) | 8.32 µM (inactive) | 19.7 µM (inactive) | > 38.9 µM (inactive) | 15.8 µM (inactive) | 18.3 µM (inactive) | 27.5 µM (inactive) | 8.17 µM (inactive) | 26.4 µM (inactive) | > 35.2 µM (inactive) | 29.3 µM (inactive)
2 | COc1cc(C2c3cc4c(cc3OC(N3CCOCC3)C2C)OCO4)cc(OC)c1OC (stereo unspecified) | 0.522 µM (active) | > 23.7 µM (inactive) | 1.09 µM (active) | 0.519 µM (active) | 0.59 µM (active) | 4.29 µM (inactive) | 1.56 µM (inactive) | 0.743 µM (active) | – | 0.457 µM (active) | 0.237 µM (active) | 0.462 µM (active) | 0.838 µM (active) | 0.537 µM (active) | 0.51 µM (active) | 1.57 µM (inactive) | 0.7 µM (active) | 15.8 µM (inactive) | 5.19 µM (inactive) | 2.84 µM (inactive)
3 | CCCCCCCCCCCCCCCCOP(=O)([O-])OCC[N+](C)(C)C1CC(C)(C)N(O)C(C)(C)C1 | > 100 µM (inactive) | > 100 µM (inactive) | – | > 100 µM (inactive) | > 100 µM (inactive) | > 100 µM (inactive) | > 100 µM (inactive) | > 100 µM (inactive) | > 100 µM (inactive) | – | > 100 µM (inactive) | > 100 µM (inactive) | > 100 µM (inactive) | > 100 µM (inactive) | > 100 µM (inactive) | – | > 100 µM (inactive) | > 100 µM (inactive) | > 100 µM (inactive) | > 100 µM (inactive)
4 | Oc1ccc([I+]c2ccccc2)cc1O | > 100 µM (inactive) | 25.8 µM (inactive) | 21.9 µM (inactive) | 73.8 µM (inactive) | 18.1 µM (inactive) | 8.36 µM (inactive) | 24.9 µM (inactive) | > 100 µM (inactive) | 34.4 µM (inactive) | 9.46 µM (inactive) | 37.4 µM (inactive) | 29.2 µM (inactive) | 26.2 µM (inactive) | – | > 10 µM (inactive) | 30.3 µM (inactive) | 0.0583 µM (active) | 53.3 µM (inactive) | 95.1 µM (inactive) | 46.7 µM (inactive)
5 | COC(CC1(CCNc2ccccc2)C(=O)N(COCC[Si](C)(C)C)c2ccccc21)OC (stereo unspecified) | 26.4 µM (inactive) | 13.6 µM (inactive) | > 43.7 µM (inactive) | 16.6 µM (inactive) | 18.9 µM (inactive) | 17.2 µM (inactive) | 15.5 µM (inactive) | 21.1 µM (inactive) | 2.69 µM (inactive) | 15.8 µM (inactive) | 16.4 µM (inactive) | – | 15.5 µM (inactive) | 14.5 µM (inactive) | 10.4 µM (inactive) | 12.5 µM (inactive) | 13.8 µM (inactive) | 17.8 µM (inactive) | 4.46 µM (inactive) | 19.3 µM (inactive)
6 | CC(NC(=O)c1ccc(OP(=O)(OCc2ccc([N+](=O)[O-])o2)N(C)CCCCCl)cc1)c1ccc(OCC2CCCCC2)c(C(N)=O)c1 (stereo unspecified) | 12.4 µM (inactive) | 2.35 µM (inactive) | 1.38 µM (inactive) | 9.51 µM (inactive) | 4.58 µM (inactive) | 2.36 µM (inactive) | 2.7 µM (inactive) | 12.9 µM (inactive) | 2.61 µM (inactive) | – | 2.63 µM (inactive) | 2.56 µM (inactive) | 16.4 µM (inactive) | 2.29 µM (inactive) | 2.77 µM (inactive) | 1.87 µM (inactive) | 1.19 µM (inactive) | 14.3 µM (inactive) | 4.56 µM (inactive) | 2.58 µM (inactive)
7 | COc1ccccc1Cn1nc(OC)c2cc([N+](=O)[O-])ccc21 | 15 µM (inactive) | 13.4 µM (inactive) | > 100 µM (inactive) | 6.3 µM (inactive) | > 100 µM (inactive) | 16.9 µM (inactive) | 63.2 µM (inactive) | 26.9 µM (inactive) | > 100 µM (inactive) | > 100 µM (inactive) | > 100 µM (inactive) | 13.8 µM (inactive) | 11.1 µM (inactive) | – | 45.8 µM (inactive) | > 100 µM (inactive) | 0.383 µM (active) | 35.6 µM (inactive) | 4.16 µM (inactive) | > 41.1 µM (inactive)
8 | Clc1cc(OCc2nn3c(Cc4ccccc4)nnc3s2)ccc1OCc1nn2c(Cc3ccccc3)nnc2s1 | 21.1 µM (inactive) | 19.4 µM (inactive) | 34.4 µM (inactive) | 19.5 µM (inactive) | 79.8 µM (inactive) | 25.8 µM (inactive) | 32.2 µM (inactive) | 29.1 µM (inactive) | > 100 µM (inactive) | – | 79.1 µM (inactive) | 16.2 µM (inactive) | 24.6 µM (inactive) | 40.6 µM (inactive) | 50.4 µM (inactive) | 93.8 µM (inactive) | 17.3 µM (inactive) | 17.1 µM (inactive) | 15.6 µM (inactive) | 18.5 µM (inactive)
